# From patent US12193441B2, “Antimicrobial mixtures comprising at least one hydroxyphenone derivative” (SYMRISE AG, priority 2018, dated 2025)
# Tested on: A. brasiliensis
# Assay: Minimum Inhibitory Concentration (MIC) and Kull synergy index against A. brasiliensis
# Type: cell-based
# Design: unit not given here
# Settings: not given
# Description: To calculate the synergism between compounds of formula (I) and other antimicrobial actives, the Kull equation^1 2 was used SI=(Cmixture×PA)/CA+(Cmixture×PB)/CB (I) • where • SI is the Synergy Index according to Kull^1), 2) • CA is the […] for substance A • CB is the cell count for substance B • Cmixture is the cell count for the mixture of substances A and B • PA is the proportion of the substance A in the mixture • PB is the proportion of the substance B in the mixture. ^1 Kull, F. C., Eismann, P. C., Sylvestrowicz, H. D., and R. L. Mayer (1961). Mixtures of Quaternary Ammonium Compounds and Long-chain Fatty Acids as Antifungal Agents. Applied Microbiology 9, 538-541.^2 Steinberg, D. C. (2000). Measuring Synergy. Cosmetics & Toiletries 115 (11), 59-62.
# Antimicrobil activity was evaluated by determining the Minimum Inhibitory Concentration (MIC) representing the lowest concentration of a chemical which prevents visible growth of a bacterium.
# The MIC values were determined by preparing solutions of the chemical in vitro at increasing concentrations, incubating the solutions with the separate batches of cultured bacteria, and measuring the results using agar dilution or broth microdilution. Results have been graded into susceptible (often called sensitive), intermediate, or resistant to a particular antibiotic by using a cutoff point. Cut off points are agreed upon values, published in guidelines of a reference body, such as the U.S. Clinical and Laboratory Standards Institute (CLSI), the British Society for Antimicrobial Chemotherapy (BSAC) or the European Committee on Antimicrobial Susceptibility Testing (EUCAST).
row,Compound,MIC (Comparison: MIC values for the actives taken alone)
1,C/C=C/C=C/C(=O)[O-].[K+] [Potassium sorbate],5000

# Same assay, conditions: active taken alone; A. brasiliensis
row,MIC (Comparison: MIC values for the actives taken alone),Compound
1,2500,CC(=O)c1ccc(O)cc1 [4-Hydroxyacetophenone]
2,250,Cc1cc(O)ccc1C(C)C [4-Isopropyl-3-methylphenol]
3,5000,OCc1ccccc1 [Benzyl alcohol]
4,2000,"O=[N+]([O-])C(Br)(CO)CO [Bronopol, 2-bromo-2-nitro-1,3-propanediol]"
5,60.000,CCCCCCCC(=O)NCC(=O)O [Capryloyl glycine]
6,64,"CC(C)(C)C(=O)C(Oc1ccc(Cl)cc1)n1ccnc1 (stereo not shown) [Climbazol, Crinipan, Climbazol]"
7,2.000,CCCCCCCCCCCC(=O)N[C@@H](CCCN=C(N)N)C(=O)OCC.Cl [Ethyl lauroyl arginate HCl]
8,40.000,"O=C(O)CN(CCN(CC(=O)O)CC(=O)O)CC(=O)O [Ethylene diamine tetra acetate (EDTA), Ethylene diamine tetra acetate]"
9,2.000,CCCCCCCCCC(=O)OCC(O)CO (stereo not shown) [Glyceryl caprate]
10,64,"Cc1cc(CC(C)CC(C)(C)C)n(O)c(=O)c1.NCCO (stereo not shown) [Piroctone oleamine, Octopyrox, 1-hydroxy-4-methyl-6-(2,4,4-trimethylpentyl)-2-(1H)-pyridinone monoethanolamine salt]"
11,5.000,C=CCCCCCCCCC(=O)NCC(=O)O [Undecenoyl glycin]
12,500,"C=CCCCCCCCCC(=O)O [Undecylenic acid, Undec-10-enoic acid, Undec-10-enoic acid]"

row,Compound,MIC (Comparison: MIC values for the actives taken alone)
1,"OCCCO [1,3-Propanediol]",200.000
2,"CCCCNC(=O)OCC#CI [IPBC, 3-Iodo-2-propynylbutylcarbamate, 3-Iodo-2-propynylbutylcarbamate]",1
3,O=C([O-])c1ccccc1.[Na+] [Sodium benzoate],10.000
4,"Oc1cc(Cl)ccc1Oc1ccc(Cl)cc1Cl [Triclosan, 2,4,4′-trichloro-2′-hydroxy-diphenyl ether]",32
5,Glceryl caprylate,2.000
6,Sorbitan caprylate,4000

# Tested on: subcutaneous inflammation
# Assay: not given
# Settings: administered intraperitoneally; cited from earlier work
row,Compound,reduction of subcutaneous inflammation
1,CC(=O)c1ccc(O)cc1 [4-Hydroxyacetophenone],one of the active compounds reducing subcutaneous inflammation

# Tested on: mold growth on moist alfalfa hay
# Assay: not given
# Settings: preservation of moist alfalfa hay; cited from earlier work
row,Compound,prevention of mold growth
1,CC(=O)c1ccc(O)cc1 [4-Hydroxyacetophenone],not prevent mold growth

# Tested on: not given
# Assay: not given
# Settings: chemical in vitro assay; constituent of Tagetes mendocina; cited from earlier work
row,Compound,antioxidant activity
1,CC(=O)c1ccc(O)cc1 [4-Hydroxyacetophenone],one of the active constituents
